Measured values: PMC6757289, “Design and Characterization of SGK3-PROTAC1, an Isoform Specific SGK3 Kinase PROTAC Degrader” (ACS Chemical Biology, 2019)
Like-named read-outs stand apart in the source and are kept apart here.

What was measured:
CDK18 = molecular target: T1, CDK18 (Homo sapiens, UniProt Q07002); assay: TMT global proteomic analysis of HEK293 cells; assay type: cell-based; conditions: HEK293, 0.3 μM, 8 h
T1 construct: global proteomic analysis of HEK293 cells treated in the presence or absence of 0.3 μM SGK3-PROTAC1; endogenous in cells; host or cells: HEK293
T1 sequence (Q07002 whole entry): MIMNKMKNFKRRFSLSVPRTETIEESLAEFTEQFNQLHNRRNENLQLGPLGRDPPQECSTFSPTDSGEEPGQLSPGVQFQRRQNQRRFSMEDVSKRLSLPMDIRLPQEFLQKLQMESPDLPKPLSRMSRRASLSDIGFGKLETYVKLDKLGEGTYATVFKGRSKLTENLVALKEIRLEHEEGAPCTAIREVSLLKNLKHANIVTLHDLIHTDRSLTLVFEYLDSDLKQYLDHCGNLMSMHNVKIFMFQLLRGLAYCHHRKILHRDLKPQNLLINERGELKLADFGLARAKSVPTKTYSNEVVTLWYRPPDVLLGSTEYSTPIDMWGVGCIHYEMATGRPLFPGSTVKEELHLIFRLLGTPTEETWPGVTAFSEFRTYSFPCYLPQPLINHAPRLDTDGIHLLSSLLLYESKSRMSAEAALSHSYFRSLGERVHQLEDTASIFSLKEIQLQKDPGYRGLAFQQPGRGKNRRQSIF
Experimental: To establish the specificity of SGK3-PROTAC1 employing an unbiased approach, we performed quantitative Tandem–Mass–Tag (TMT)-labeled global proteomic analysis of HEK293 cells treated in the presence or absence of 0.3 μM SGK3-PROTAC1 compared to either 0.3 μM cisSGK3-PROTAC1 or DMSO for 8 h. Experiments were undertaken in triplicate, and analysis in Proteome Discoverer v2.2 using the Mascot search engine allowed relative quantification of 8766 proteins.
Figure 4 TMT proteomic analysis of HEK293 cells treated with SGK3-PROTAC1. (A) Cells were treated with DMSO (control), SGK3-PROTAC1 (0.3 μM), or cisSGK3-PROTAC1 (0.3 μM) for 8 h and lysed. Lysates were subjected to immunoblot analysis with the indicated antibodies. (B) Lysates were examined by quantitative proteomics. […]
Cell culture and proteomic sample preparation
Cells pellets were lysed with 2 ml of lysis buffer (8 M Urea, 50 mM Ammonium bicarbonate containing protease inhibitor and phosphatase inhibitor). The sample were left on ice for 15 min and were then sonicated for 5 min in ice-cold water bath under high intensity with 30 sec on and off. After sonication, benzonase® endonuclease (Merck Millipore) with the volume ratio of 1: 100 were added into the lysate to degrade DNA and RNA. The lysate were then centrifuged at 12,000 rpm for 15 min at 4 °C, and supernatants were transferred into new eppendorf tubes. The protein concentration were measured with BCA assay (Pierce™ BCA Protein Assay Kit, Thermo). The lysate from each sample was reduced with 5 mM DTT at 45 °C for 30 min. Lysates were briefly centrifuged and were cool down to room temperature before alkylation in the dark with 10 mM iodoacetamide at room temperature. The alkylation was then quenched by the addition of 5 mM DTT. Samples were first digested by Lys-C with the weight ratio of 1:200 (w/w) for 4 h at 30 °c. Then, sample were diluted with 50 mM ammonium bicarbonate to 1.5 M Urea concentration. Samples were then digested with trypsin (Pierce trypsin, Thermo) at an enzyme to protein ratio of 1:50 (w/w) at room temperature with gentle shaking for overnight.
The digest was stopped by the addition of 1% TFA (v/v), centrifuged at 10,000 g for 10 min at room temperature.
The supernatant were desalted on 200 mg SepPak tC18 cartridge (Waters). Desalted peptides were dried by vacuum centrifugation using Speedvac (Thermo).
TMT labelling and Basic C18 reverse phase (bRP) chromatography fractionation Each sample (200 μg of peptides each) was re-suspended in 100 μL of 100 mM TEAB buffer. The TMT labelling reagents were equilibrated to room temperature and 41 μL anhydrous acetonitrile was added to each reagent channel and softly vortexed for 10 min. Peptides were transferred to the corresponding TMT channels and incubated for 1 h at room temperature. The reaction was quenched with 8 μL of 5% hydroxylamine. To ensure complete labelling, 1 µg of labelled samples from each channel were analyzed by LC-MS/MS prior to mix. After evaluation, the complete TMT labelled 9 samples were then combined, acidified and dried. Sep-Pak desalting was then performed and the elution was dried to completeness.
Ultimate 3000 high-pressure liquid chromatography (HPLC) system (Dionex) were used for basic C18 reverse phase chromatography fractionation operating at 569 µL/min with two buffers: buffer A (10 mM ammonium formate, pH 10) and buffer B (80% ACN, 10 mM ammonium formate, pH 10). […]

MKK1 = MKK1 (Homo sapiens, UniProt Q02750); assay: kinase profiling panel; assay type: biochemical; conditions: read-out: % Activity Remaining
Chain of MKK1 (Q02750 whole entry): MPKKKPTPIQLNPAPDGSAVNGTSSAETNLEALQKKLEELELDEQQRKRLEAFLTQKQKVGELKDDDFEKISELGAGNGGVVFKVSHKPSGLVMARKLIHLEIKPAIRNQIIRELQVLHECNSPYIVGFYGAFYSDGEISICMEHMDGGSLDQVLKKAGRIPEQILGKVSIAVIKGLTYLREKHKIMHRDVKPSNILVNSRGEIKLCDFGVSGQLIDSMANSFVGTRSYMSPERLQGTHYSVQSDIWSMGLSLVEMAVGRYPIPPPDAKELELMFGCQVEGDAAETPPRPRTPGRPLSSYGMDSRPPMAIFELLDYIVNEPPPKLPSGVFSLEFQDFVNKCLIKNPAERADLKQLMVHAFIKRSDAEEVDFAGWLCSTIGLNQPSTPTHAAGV
Excerpt: Protein kinase profiling against a Dundee panel of 140 protein kinases was undertaken at the International Centre for Protein Kinase Profiling. The result for each kinase was presented as a mean kinase activity of the reaction taken in triplicate relative to a control sample treated with DMSO. Assay conditions and abbreviations are available at http://www.kinase-screen.mrc.ac.uk.

Cc1ccc(F)c(S(=O)(=O)Nc2ccc(-c3nc(OC[C@H]4CN(CCCCCCOCCOCCOCC(=O)N[C@H](C(=O)N5C[C@H](O)C[C@H]5C(=O)NCc5ccc(-c6scnc6C)cc5)C(C)(C)C)CCO4)c4cn[nH]c4n3)cc2)c1 [SGK3-PROTAC1]
Abundances (Grouped) (CDK18): 66.1 | Ratio: (SGK3-PROTAC1) / (cSGK3-PROTAC1) (CDK18): 0.727 | Ratio: (compound) / (DMSO) (CDK18): 0.652 | remaining activity at 1 µM (MKK1; 1 µM): 106%

COc1ccc(Cl)c(S(=O)(=O)Nc2ccc(-c3nc(OC[C@H]4CNCCO4)c4c(C)n[nH]c4n3)cc2)c1 [290-R, reference compound]
remaining activity at 1 µM (MKK1): 66%

Cc1ccc(F)c(S(=O)(=O)Nc2ccc(-c3nc(OC[C@H]4CN(CCCCCCOCCOCCOCC(=O)N[C@H](C(=O)N5C[C@@H](O)C[C@H]5C(=O)NCc5ccc(-c6scnc6C)cc5)C(C)(C)C)CCO4)c4cn[nH]c4n3)cc2)c1 [cisSGK3-PROTAC1]
Abundances (Grouped) (CDK18): 126.5 | Ratio: (compound) / (DMSO) (CDK18): 1.144 | remaining activity at 1 µM (MKK1; 1 µM): 102%

Cc1ccc(F)c(S(=O)(=O)Nc2ccc(-c3nc(OC[C@H]4CNCCO4)c4cn[nH]c4n3)cc2)c1 [308-R, reference compound]
remaining activity at 1 µM (MKK1): 62%
